Results: article PMC11067372, “Evaluation of the antiplasmodial efficacy of synthetic 2,5-diphenyloxazole analogs of compounds naturally derived from Oxytropis lanata” (International Journal for Parasitology: Drugs and Drug …, 2024)
Read-outs that look alike come from different tables or passages of the source.

Legend:
P. falciparum K1 = test: In vitro inhibition of P. falciparum K1 (SYBR Green I-based fluorescence assay); assay type: cell-based; conditions: Plasmodium falciparum; multidrug-resistant strain K1; 72 h incubation; average ± SD, three independent experiments; read-out: IC50 P. falciparum K1
Description: (§1) The cultures were maintained in an incubator under specific conditions: 37 °C under 5% CO2 and 5% O2.
(§2) The D-sorbitol method (CAS: 50-70-4, Wako, Osaka, Japan) was employed to synchronize parasites, resulting in the attainment of ≥90% ring-stage parasites. These synchronized parasites were then utilized for the experiments within a 2-h window. The assay was performed as follows. First, 50 μL of synchronized parasites with 0.5% parasitemia and 2% hematocrit were added to individual wells of a 96-well plate. Then, 50 μL of the test compounds was introduced to each well. […] Wells containing only test compounds and erythrocytes were included for background correction. […] After the designated incubation time, 100 μL of lysis buffer containing 0.02% (v/v) SYBR Green I was added to each well, the contents of the well were mixed by pipetting, and the plate was incubated in the dark at room temperature for 2 h. […] This assay was repeated four times at each concentration, and the resulting inhibitory values represent the average from three independent trials.
(§3) The IC50 or CC50 values were determined from three independent experiments by plotting the logarithmic concentration of the compound against the percent parasite inhibition or cell growth inhibition, respectively. Nonlinear regression analysis was conducted using GraphPad Prism 10 (GraphPad Software, Inc., La Jolla, CA, USA). Comparisons between groups were evaluated using either one-way or two-way ANOVA followed by Tukey's or Fisher's multiple comparisons tests. […] The meaning of each symbol is specified in the corresponding figure legend alongside the name of the employed test.

P. falciparum 3D7 [1] = test: Stage-specific assay on ring and schizont stages (SYBR Green I, 24 h); assay type: cell-based, Plasmodium falciparum; conditions: eight concentrations from 100-fold IC50
Description: To ensure uniformity, the parasites underwent a rigorous synchronization process using a two-step sorbitol treatment procedure. This synchronized parasite population was harnessed within a 2-h window for the ring stage, 8–10 h for the trophozoite stage, and 24–26 h for the schizont stage. Subsequent to sorbitol treatment, early trophozoites could be obtained within 6–8 h after the initial sorbitol treatment (within 20 h of development), while early schizonts could be obtained after an additional 16 h of incubation (within 36 h of development). Beyond 36 h, the schizonts mature, causing the rupture of red blood cells (RBCs) and the consequent release of merozoites, which promptly infect new RBCs.
Wells containing only the test compounds and erythrocytes were included to correct for background activity. The 96-well plates were incubated for 24 h at 37 °C in an atmosphere of 5% CO2 and 5% O2. The growth of P. falciparum 3D7 was detected using a SYBR Green I-based fluorescence assay.

P. falciparum 3D7 [2] = test: 72-h compound exposure assay with wash-unwashed procedure (up to 144 h); assay type: cell-based, Plasmodium falciparum; conditions: for Parasitemia levels at 48 and 72 h compared to untreated controls: compound at IC80; for Cidal versus static effect: compound at IC80, up to 144 h, washed and unwashed groups
Description: In the 72-h compound exposure assay with the compound wash-unwashed procedure, parasites at the ring stage with 0.5% parasitemia and 2% hematocrit were employed. For this evaluation, Compounds 31 and 32 were used at concentrations equivalent to their respective IC80 values (Compound 31: 18.08 μM; hill slope 2.10, Compound 32: 11.74 μM; hill slope 2.02). These groups were considered the treated groups, while cultures with only complete medium served as untreated groups. The IC80 was used to allow observations of parasite morphology under incomplete inhibition, the potential emergence of abnormal morphologies, and the state of parasites following compound removal. This experimental setup was repeated three times for each concentration and time point. Thin blood smears were prepared from each treatment group at 1, 24, 48, or 72 h post incubation. In different culture sets, after 72 h of incubation, the medium was exchanged, and the compounds were subjected to three washes using fresh complete medium. Incubation was then continued either in the presence (unwashed group) or absence (washed group) of the test compounds for up to 144 h. Thin blood smears were consecutively prepared from each treatment group at 96, 120, and 144 h. The smears were visualized using a BZ-900 all-in-one microscope (Keyence BioRevo, Tokyo, Japan). Parasitemia levels were calculated by counting the number and determining the ratio of infected erythrocytes relative to the number of uninfected erythrocytes.

P. falciparum 3D7 [3] = test: In vitro inhibition of P. falciparum 3D7 (SYBR Green I-based fluorescence assay); assay type: cell-based, Plasmodium falciparum; parameters: logIC50: unit not given here; conditions: for IC80 / IC50: Plasmodium falciparum; for IC80: concentration used in the 72-h exposure assay; for logIC50: base-10 log-transformed IC50 against P. falciparum 3D7
Description: as §1, §2, §3

[4] = Table S2, P. falciparum 3D7, value used for SAR analysis, read-out: IC50
[5] = chloroquine-sensitive strain 3D7, 72 h incubation, average ± SD, three independent experiments, read-out: IC50 P. falciparum 3D7

SMILES | IC50 (P. falciparum K1) [µM] | Stage specificity (ring and schizont stages) (P. falciparum 3D7 [1]) | Parasitemia levels at 48 and 72 h compared to untreated controls (P. falciparum 3D7 [2]) | Cidal versus static effect (P. falciparum 3D7 [2]) | IC80 (P. falciparum 3D7 [3]; P. falciparum 3D7) [µM] | IC50 (P. falciparum 3D7 [3]; [4]) [µM] | IC50 (P. falciparum 3D7 [3]; [5]) [µM] | logIC50 (P. falciparum 3D7 [3]; Table S2)
COc1cccc(-c2ncc(-c3ccccc3O)o2)c1OC [Compound 31, 2-(2′,3′-dimethoxyphenyl)-5-(2″-hydroxyphenyl)oxazole] | 2.66 ± 1.15 | classic slow-acting profile, which only gains significant activity at elevated concentrations | significantly lower parasitemia levels | possible cidal effect | 18.1 | 8.37 | 8.37 ± 1.28 | 0.9226
COc1cccc(-c2ncc(-c3ccccc3OCc3ccccc3)o2)c1OC [Compound 32, 2-(2′,3′-dimethoxyphenyl)-5-(2″-benzyloxyphenyl)oxazole] | 4.37 ± 1.7 | effect on the ring and schizont stages is comparable to those positive controls | significantly lower parasitemia levels | predominantly static effect | 11.7 | 6.25 | 6.25 ± 1.39 | 0.7961
